From patent US20150166476A1, “METHODS FOR TREATING NEURODEGENERATIVE DISEASES ASSOCIATED WITH AGGREGATION OF AMYLOID-BETA” (priority 2013, published 2015)
“Also recorded” adds a separate entry of the source.

How the values were obtained:
Aβ1-40 [1] = biological target: T1, Aβ1-40 (Homo sapiens, UniProt P05067); test: Peptide aggregation assay (Thioflavin-T fluorescence); assay type: biochemical; conditions: 25 μM Aβ1-40, 100 ng/mL compound, 37° C., day 5 (FIG. 1)
T1 construct: Aβ1-40 peptide was synthesized in a solid-phase synthesizer; made in house; host or cells: chemical solid-phase peptide synthesis (no expression host)
Method: Thioflavin-T (ThT) was used to monitor the aggregation state of Aβ1-40. 25 μM of Aβ1-40 was freshly diluted from the peptide stock solution in phosphate buffer (pH 7.4), for peptide aggregation assay. All samples containing a peptide concentration of 25 μM in the absence or presence of 100 ng/mL the compound of formula (I) and 3 μM ThT were incubated at 37° C. Samples containing either Aβ peptide only (control), or Aβ with the compound of formula (I), taking daily from day 0 to day 7, were used to measure the ThT sensitivity. The fluorescence measurement was performed on a microplate reader (FlexSTation 3, MD), with excitation and emission wavelength respectively set at 440 nm and 485 nm.
In this example, the effects of the compound of formula (I) on the aggregation of Aβ1-40 were investigated using the Th-T fluorescence assay described above in the Material and Methods section. Results are depicted in FIG. 1.

Aβ1-40 [2] = biological target: T1, Aβ1-40; test: FT-IR spectroscopy of the secondary structure of Aβ1-40; assay type: biochemical; conditions: day 1 and day 5 (FIG. 2)
Method: The secondary structure of Aβ1-40 with or without the compound of formula (I) was investigated using FT-IR spectrometer (Jasco, FT-IR/4100) equipped with an attenuated reflection accessory to determine the conformation of Aβ1-40 during the aggregative process. 100 μL of 0.1 mM Aβ solution was coated on ZnSe crystals and dried overnight in a desiccators at room temperature. The spectra were recorded at 1,500 to 1,800 cm^−1 with a 1 cm^−1 interval. The peak was identified from the first derivation of the IR spectrum in the amide I region, and the secondary structure was analyzed using Original 6.0 software.
It is known that during the aggregation process, the conformation of Aβ1-40 is converted to either […]. […] Results are depicted in FIG. 2.

SH-SY5Y cells = test: Cell viability assay (WST-1), Aβ1-40 induced cell death; assay type: cell-based, Human; conditions: for effect on Aβ1-40 induced cell death (cell viability): 25 μM Aβ1-40, 24 hr, compound at concentration below 100 ng/mL (FIG. 3)
Method: Human […] SH-SY5Y cells were cultured in minimum essential medium supplemented with 10% (v/v) heat-inactivated fetal bovine serum, 50% (v/v) F-12 nutrient mixture, and 1% (v/v) antibiotic mixture comprised of penicillin and streptomycin. Cells were kept at 37° C. in a humidified atmosphere of 5% CO2. SH-SY5Y cells were plated at a density of 1×10^5 viable cells per well in 96-well plates for future analysis.
The cell viability was determined by the WST-1 assay. […] of Aβ1-40 peptide stock solution were prepared by dissolving 1 mg Aβ1-40 in 1 mL trifluoroethanol and centrifuging to remove any insoluble particles. The peptide solution was then dried under nitrogen gas and re-dissolved in dimethyl sulfoxide, and incubated at 4° C. for 12 hr to provide the final peptide stock solution. For the viability assay, cells (1×10^5 cells/well in a 96-well microtiter plate) were treated with either 25 μM Aβ peptides only (as a positive control), or with the combination of 25 μM Aβ peptides and the compound of formula (I), in a concentration ranged from 1 to 1,000 ng/mL. The reaction was performed in a total volume of 200 μL per well for 24 hr at 37° C. in a humidified atmosphere containing 5% CO2 before cell viability was assayed. The WST-1 solution (10 μL) was added to each well, and the wells were incubated for another 4-5 hr at room temperature. The optical density was measured at 405 nm using a microplate reader.
In this example, the effects of compounds of formula (I) on Aβ1-40 induced cell toxicity were investigated by cell viability assay.

Aβ1-40 [3] = biological target: T1, Aβ1-40; test: Free radical assay (DCFH-DA), cell free; assay type: biochemical; conditions: 25 μM Aβ1-40, versus Aβ1-40 alone (FIG. 4)
Method: The level of free radicals (H2O2) induced by Aβ1-40 peptide in cell free conditions was analyzed using the dichlorofluorescein diacetate (DCFH-DA) assay. DCF-DA was deacetylated with 50% (v/v) 0.05 M NaOH for 30 min and neutralized (pH 7.5) to a final concentration of 200 μM as a stock solution. This stock solution was kept on ice in the dark until future use. The reactions were carried out in a 96-well plate (200 μL/well) containing 25 μM of Aβ1-40 diluted from the stock solution, 20 μM deacetylated DCF, 5 μM horseradish peroxidase, in Dulbecco's phosphate-buffered saline, pH 7.5. To determine the inhibitory effects of the compound of formula (I) on free radical formation, various concentrations of the compound of formula (I) were added and incubated at 37° C. Fluoresence readings were recorded on a microplate reader (FlexSTation 3, MD) with the excitation wavelength of 485 nm and the emission wavelength of 530 nm. The fluorescence intensity of DCF (H2O2 level) was measured every 6 hr and from 0 to 72 hr.

T1 sequence (P05067 672-711 limits assumed): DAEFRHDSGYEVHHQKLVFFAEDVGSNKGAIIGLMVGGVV

Row | SMILES | effect on the aggregation of Aβ1-40 (Th-T fluorescence intensity) (Aβ1-40 [1]) | conformation of Aβ1-40 (FT-IR, 1650 cm^−1 random coil vs 1625 cm^−1 β-sheet) (Aβ1-40 [2]) | effect on Aβ1-40 induced cell death (cell viability) (SH-SY5Y cells) | Aβ1-40 induced free radical levels (DCF fluorescence intensity) (Aβ1-40 [3]) | cell survival rate (SH-SY5Y cells; 25 μM Aβ1-40, 1 ng/mL compound) [%] | cell survival rate (SH-SY5Y cells; 25 μM Aβ1-40, 100 ng/mL compound) [%] | cell survival rate (SH-SY5Y cells; 25 μM Aβ1-40, 1,000 ng/mL compound) [%]
1 | CC1=C(SCCO)C(=O)c2ccccc2C1=O [VK3-1] | capable of enhancing the aggregation of Aβ1-40 | converted to β-sheet structure | smaller effects | resulted even more free radicals as compared with the control | – | – | –
2 | CC1=C(SCCCO)C(=O)c2ccccc2C1=O [VK3-2] | capable of preventing Aβ1-40 from aggregation | remained mostly in random coil conformation | smaller effects | resulted even more free radicals as compared with the control | – | – | –
3 | CC1=C(SCCCCO)C(=O)c2ccccc2C1=O [VK3-3] | – | converted to β-sheet structure | smaller effects | resulted even more free radicals as compared with the control | – | – | –
4 | CC1=C(SCCCCCCO)C(=O)c2ccccc2C1=O [VK3-4] | capable of enhancing the aggregation of Aβ1-40 | – | smaller effects | – | – | – | –
5 | CC1=C(SCCCCCCCCCCCO)C(=O)c2ccccc2C1=O [VK3-5] | capable of enhancing the aggregation of Aβ1-40 | converted to β-sheet structure | smaller effects | effectively inhibited | – | – | –
6 | CC1=C(SCCC(=O)O)C(=O)c2ccccc2C1=O [VK3-6] | capable of preventing Aβ1-40 from aggregation; also recorded: most potent | remained mostly in random coil conformation | – | – | – | – | –
7 | CC1=C(SCC(C)O)C(=O)c2ccccc2C1=O (centres unmarked) [VK3-8] | capable of preventing Aβ1-40 from aggregation | remained mostly in random coil conformation | smaller effects | resulted even more free radicals as compared with the control | – | – | –
8 | CC1=C(SCC(O)CO)C(=O)c2ccccc2C1=O (centres unmarked) [VK3-9] | capable of preventing Aβ1-40 from aggregation; also recorded: most potent | remained mostly in random coil conformation | exhibited the ability of preventing Aβ1-40 induced cell death | effectively inhibited | 50 | 88 | 92
9 | O=C1C=C(SCCO)C(=O)c2ccccc21 [VK3-199] | capable of preventing Aβ1-40 from aggregation | remained mostly in random coil conformation | smaller effects | resulted even more free radicals as compared with the control | – | – | –
10 | CC1=C(O)C(=O)c2ccccc2C1=O [VK3-221] | capable of preventing Aβ1-40 from aggregation | remained mostly in random coil conformation | smaller effects | – | – | – | –
11 | CC1=C(NCCN2CCOCC2)C(=O)c2ccccc2C1=O [VK3-224] | capable of preventing Aβ1-40 from aggregation | remained mostly in random coil conformation | no difference from that of the control | – | – | – | –
12 | O=C1C(SCCO)=C(SCCO)C(=O)c2ccccc21 [VK3-231] | – | – | smaller effects | resulted even more free radicals as compared with the control | – | – | –
13 | O=C1C(SCC(O)CO)=C(SCC(O)CO)C(=O)c2ccccc21 (centres unmarked) [VK3-232] | – | – | no difference from that of the control | – | – | – | –
14 | O=C1C(SCCCCCCO)=C(SCCCCCCO)C(=O)c2ccccc21 [VK3-233-2d] | capable of enhancing the aggregation of Aβ1-40 | converted to β-sheet structure | no difference from that of the control | resulted even more free radicals as compared with the control | – | – | –
